Results taken from patent US20150190534A1, “COMPOUNDS FOR USE AS POSITRON EMISSION IMAGING AGENTS” (UNIVERSITY OF BERN, priority 2014, published 2015).
Where a chain is given by its changes, count along the chain named. Read-outs that look alike come from different tables or passages of the source.

Key:
human WT-AR = target: T1, human WT-AR (Homo sapiens, UniProt P10275); test: Whole cell competitive binding assay, WT-AR
T1 construct: pSG5-AR with full-length cDNA of human WT-AR; expressed in transfected cells; host or cells: COS-7
T1 sequence (P10275 1-920): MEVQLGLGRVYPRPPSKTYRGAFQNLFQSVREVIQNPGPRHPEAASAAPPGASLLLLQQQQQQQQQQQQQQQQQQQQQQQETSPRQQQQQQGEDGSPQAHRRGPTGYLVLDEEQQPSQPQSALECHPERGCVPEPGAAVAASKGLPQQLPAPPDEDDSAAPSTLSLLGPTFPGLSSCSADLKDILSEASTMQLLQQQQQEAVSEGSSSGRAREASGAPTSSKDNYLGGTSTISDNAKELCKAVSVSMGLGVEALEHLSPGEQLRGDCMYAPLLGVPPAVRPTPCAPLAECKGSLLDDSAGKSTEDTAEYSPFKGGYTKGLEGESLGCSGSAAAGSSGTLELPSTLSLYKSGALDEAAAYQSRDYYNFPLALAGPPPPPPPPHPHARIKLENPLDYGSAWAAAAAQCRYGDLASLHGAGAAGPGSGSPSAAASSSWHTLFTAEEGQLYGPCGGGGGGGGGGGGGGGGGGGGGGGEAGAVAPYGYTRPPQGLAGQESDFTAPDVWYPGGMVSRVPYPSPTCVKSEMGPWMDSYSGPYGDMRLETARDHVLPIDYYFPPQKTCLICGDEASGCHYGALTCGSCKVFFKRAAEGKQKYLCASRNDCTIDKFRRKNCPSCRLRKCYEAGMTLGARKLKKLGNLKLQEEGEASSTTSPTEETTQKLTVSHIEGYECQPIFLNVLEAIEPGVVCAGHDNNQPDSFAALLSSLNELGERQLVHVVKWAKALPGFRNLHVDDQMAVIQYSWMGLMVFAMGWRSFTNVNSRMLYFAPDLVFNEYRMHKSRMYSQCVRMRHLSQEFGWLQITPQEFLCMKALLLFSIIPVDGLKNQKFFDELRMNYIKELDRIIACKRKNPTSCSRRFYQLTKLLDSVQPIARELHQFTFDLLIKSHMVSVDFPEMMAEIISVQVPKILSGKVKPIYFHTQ
Description: (§1) Prostate. Jun. […] T877A-AR was generated by site-directed mutagenesis as described in Andrieu T, Bertolini R, Nichols S E, et al. A novel steroidal antiandrogen targeting wild type and mutant androgen receptors. Biochem Pharmacol. Dec. […] Cells seeded on 6-well plates (density: 5×10^5/well) were transfected 96 h later with 1 μg of empty (pcDNA3) or human AR encoding plasmids using 3 μl of FuGENE-HD transfection reagent (Roche, Rotkreuz, Switzerland). One day after transfection the medium was changed to 2% charcoal treated (CT) FBS containing medium.
(§2) In 24 wells 50′000 COS-7 cells were seeded and transfected with 500 ng of receptor encoding plasmids. One day later, cells were washed and cultured in 0.5 ml of phenol-red free DMEM with 2% CT-FBS for another 24 h. […] Supernatant and cells were mixed with scintillation liquid (Irgasafe, Perkin Elmer) and radioactivity counted (Tri-Carb 2000CA, Canberra Packard). The percentage of binding in presence and absence of derivative was calculated relatively to total dpm and results expressed as percentage of binding relative to the ^3H-tracer alone (100%).

T877A-AR = target: T2, T877A-AR (Homo sapiens, UniProt P10275, T878A); test: Whole cell competitive binding assay, T877A-AR
T2 construct: pSG5-AR with full-length cDNA of human WT-AR; expressed in transfected cells; host or cells: COS-7
T2 sequence (P10275 1-920 T878A): T1 sequence (P10275 1-920) with T878A
Description: as §1, §2

[1] = test system: T877A-AR positive C4-2 tumors; test: PET/CT imaging, C4-2 tumor bearing mice; format: in vivo, mouse
[2] = test system: PC-3 AR-negative xenografts; test: PET/CT imaging, PC-3 tumor bearing mice; format: in vivo, mouse; conditions: 3 h after injection
[3] = target: T3, mutant T877A-AR (pSG5AR-T877A) transfected COS-7 cells (Homo sapiens, UniProt P10275, T878A); format: cell-based
T3 construct: pSG5-AR with full-length cDNA of human WT-AR; expressed in transfected cells; host or cells: COS-7
T3 sequence (P10275 1-920 T878A): T1 sequence (P10275 1-920) with T878A
From the text: Prostate. Jun. 1, 2011; 71(8):872-880.), progesterone receptor (pSG5-PR-alpha, pSG5-pPRbeta, PR), glucocorticoid (pCMV5-hGR-alpha, GR) and mineralocorticoid receptors (pRShMR, MR), estrogen receptors (pCMV5-ER-alpha, pCMV5-ER-beta, ER). T877A-AR was generated by site-directed mutagenesis as described in Andrieu T, Bertolini R, Nichols S E, et al. A novel steroidal antiandrogen targeting wild type and mutant androgen receptors. Biochem Pharmacol. Dec. 1, 2011; 82(11):1651-1662. Cells seeded on 6-well plates (density: 5×10^5/well) were transfected 96 h later with 1 μg of empty (pcDNA3) or human AR encoding plasmids using 3 μl of FuGENE-HD transfection reagent (Roche, Rotkreuz, Switzerland). One day after transfection the medium was changed to 2% charcoal treated (CT) FBS containing medium.
Then cells were washed with ice cold PBS. Collected medium and PBS were considered as the unbound fraction. Cells were incubated for 5 min in glycine buffer 50 mM (pH 2.8), washed with PBS (membrane fraction) and lysed with RIPA buffer (Sigma, R0278) (cellular fraction). The radioactivity was measured by gamma counting. Cellular uptake of radioactivity was corrected by the protein amount (BCA assay, Pierce).

[4] = Description: (§3) Male SCID-mice (Charles River, Sulzfeld, Germany) were subcutaneously injected with C4-2 and PC-3 cells into both shoulders as previously described (21).
(§4) Images were reconstructed at 0.6 mm thickness using a H31s medium smooth plus kernel. […] For biodistribution studies mice were sacrificed using CO2 after 1-3 h, designated organs and tissues harvested and weighed. Radioactivity was measured in a Gamma-counter (Wizard, Perkin Elmer) and the percentage of injected dose per gram of tissue (% ID/g) calculated.

[5] = test system: T877A-AR positive C4-2 tumors; conditions: 1 h
Description: as §3, §4

[6] = test system: receptor negative PC-3 tumors; conditions: 1 h
Description: as §3, §4

## C[C@]12CCC(=O)C[C@@H]1CC[C@@H]1[C@@H]2CC[C@]2(C)[C@@H](OC(=O)NCCCF)CC[C@@H]12 [RB390]
Human WT-AR
  IC50: 357 nM
T877A-AR
  IC50: 32 nM
[1]; 3 h, excess of unlabelled DHT injected in parallel
  PET signal in C4-2 tumors with unlabelled DHT: nearly full receptor blockade
[1]; 3 h after injection
  PET signal in C4-2 tumors: bound specifically
[2]
  PET signal in PC-3 tumors: remained at background levels

## C[C@]12CC[C@H](O)C[C@@H]1CC[C@@H]1[C@@H]2CC[C@]2(C)[C@@H](OC(=O)NCCCF)CC[C@@H]12 [RB448]
Human WT-AR
  IC50: 2200 nM
T877A-AR
  IC50: 37.7 nM
T877A-AR; comparison of IC50 values
  affinity/selectivity for T877A-AR versus WT-AR: even more favorable selectivity

## C[N+](C)(CF)CCO [^18F-FCH, ^18F-fluorocholine]
[3]; pcDNA3, WT-AR or T877A-AR transfected COS-7 cells
  preferential uptake by transfected cells: did not reveal any preferential uptake
[3]; transfected COS-7 cells, washing procedures
  radioactivity after washing procedures: eliminated
[4]; 1 h
  Bone: 27.99 ± 5.95 % ID/g
  Brain: 9.61 ± 2.13 % ID/g
  Heart: 76.93 ± 5.18 % ID/g
  Intestine: 22.97 ± 4.67 % ID/g
  Kidney: 164.72 ± 33.57 % ID/g
  Liver: 48.82 ± 7.55 % ID/g
  Lung: 97.42 ± 23.21 % ID/g
  Muscle: 10.36 ± 2.58 % ID/g
  Prostate: 48.26 ± 19.35 % ID/g
  Spleen: 66.48 ± 19.45 % ID/g
  Testis: 13.58 ± 2.64 % ID/g
[4]; tumor bearing SCID-mice
  route of metabolism/excretion: excreted predominantly by the kidney
[5]
  C4-2 Tumor: 31.62 ± 3.88 % ID/g
[6]
  PC-3 Tumor: 5.65 ± 1.37 % ID/g

## ^18F-fluorodeoxyglucose [^18F-FDG]
[3]
  preferential uptake by transfected cells: did not reveal any preferential uptake
  radioactivity after washing procedures: eliminated
